According to ChEMBL document CHEMBL5465560, “Selectivity Literature for EUbOPEN Chemogenomic Library” (2024):

Legend:
[1] = molecular target: Serine/threonine-protein kinase pim-1 (Homo sapiens, UniProt P11309); experiment: Selectivity interaction (KinomeScan (DiscoverX)) EUB0000229b PIM1; settings: at 10 µM
[2] = molecular target: T1, Serine/threonine-protein kinase ULK3 (Homo sapiens) (UniProt Q6PHR2); experiment: Selectivity interaction (KinomeScan (DiscoverX)) EUB0000229b ULK3; settings: at 10 µM
T1 sequence (whole entry): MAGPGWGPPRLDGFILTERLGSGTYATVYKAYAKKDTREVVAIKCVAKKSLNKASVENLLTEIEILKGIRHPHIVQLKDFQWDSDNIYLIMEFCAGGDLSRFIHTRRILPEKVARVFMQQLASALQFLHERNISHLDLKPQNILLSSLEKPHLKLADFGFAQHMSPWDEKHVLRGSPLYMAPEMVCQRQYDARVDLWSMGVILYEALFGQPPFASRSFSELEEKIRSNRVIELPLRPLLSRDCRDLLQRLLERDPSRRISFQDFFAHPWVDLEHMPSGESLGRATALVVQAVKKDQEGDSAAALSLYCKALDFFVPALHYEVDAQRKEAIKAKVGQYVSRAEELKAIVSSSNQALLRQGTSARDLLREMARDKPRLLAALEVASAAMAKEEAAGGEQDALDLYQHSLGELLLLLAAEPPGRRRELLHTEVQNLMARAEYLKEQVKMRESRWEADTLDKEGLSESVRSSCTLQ

[3] = molecular target: T2, Lymphokine-activated killer T-cell-originated protein kinase (Homo sapiens) (UniProt Q96KB5); experiment: Selectivity interaction (Kinase panel (DSF assay)) EUB0001558a PBK
T2 sequence (whole entry): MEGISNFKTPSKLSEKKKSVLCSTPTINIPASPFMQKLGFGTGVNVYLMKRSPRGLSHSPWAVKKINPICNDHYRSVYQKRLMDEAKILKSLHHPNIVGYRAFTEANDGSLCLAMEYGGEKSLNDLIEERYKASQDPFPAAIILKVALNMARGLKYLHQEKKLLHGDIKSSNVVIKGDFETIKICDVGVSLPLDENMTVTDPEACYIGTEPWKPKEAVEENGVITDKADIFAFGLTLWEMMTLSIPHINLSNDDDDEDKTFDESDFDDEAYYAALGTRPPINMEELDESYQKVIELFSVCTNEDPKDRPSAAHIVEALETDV

[4] = molecular target: Phosphatidylinositol 3-kinase catalytic subunit type 3 (Homo sapiens, UniProt Q8NEB9); experiment: Selectivity interaction (Kinase panel (ADP-Glow assay)) EUB0000877a PIK3C3
[5] = molecular target: Cyclin-dependent kinase 7 (Homo sapiens, UniProt P50613); experiment: Selectivity interaction (KinomeScan (DiscoverX)) EUB0001550a CDK7; settings: at 1 µM
[6] = molecular target: T3, Mitogen-activated protein kinase 15 (Homo sapiens) (UniProt Q8TD08); experiment: Selectivity interaction (KinomeScan (DiscoverX)) EUB0000092b MAPK15; settings: at 10 µM
T3 sequence (whole entry): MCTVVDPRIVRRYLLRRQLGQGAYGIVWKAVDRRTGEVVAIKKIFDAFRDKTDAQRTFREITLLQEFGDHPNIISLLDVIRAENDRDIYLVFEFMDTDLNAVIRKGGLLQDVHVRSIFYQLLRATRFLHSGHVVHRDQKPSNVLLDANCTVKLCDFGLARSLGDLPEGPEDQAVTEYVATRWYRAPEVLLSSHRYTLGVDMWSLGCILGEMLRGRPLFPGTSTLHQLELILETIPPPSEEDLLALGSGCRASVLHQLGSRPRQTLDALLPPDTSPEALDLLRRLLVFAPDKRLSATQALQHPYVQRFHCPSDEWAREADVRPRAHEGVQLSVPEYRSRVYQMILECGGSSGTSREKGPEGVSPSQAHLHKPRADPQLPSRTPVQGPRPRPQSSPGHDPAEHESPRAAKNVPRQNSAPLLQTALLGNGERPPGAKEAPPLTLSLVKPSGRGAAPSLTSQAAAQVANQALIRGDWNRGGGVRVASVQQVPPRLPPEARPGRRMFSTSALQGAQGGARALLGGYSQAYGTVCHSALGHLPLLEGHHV

[7] = molecular target: Serine/threonine-protein kinase 33 (Homo sapiens) (UniProt Q9BYT3); experiment: Selectivity interaction (KinomeScan (DiscoverX)) EUB0000045b STK33
[8] = molecular target: T4, Tyrosine-protein kinase receptor TYRO3 (Homo sapiens) (UniProt Q06418); experiment: Selectivity interaction (KinomeScan (DiscoverX)) EUB0000695a TYRO3; settings: at 100 nM
T4 sequence (whole entry): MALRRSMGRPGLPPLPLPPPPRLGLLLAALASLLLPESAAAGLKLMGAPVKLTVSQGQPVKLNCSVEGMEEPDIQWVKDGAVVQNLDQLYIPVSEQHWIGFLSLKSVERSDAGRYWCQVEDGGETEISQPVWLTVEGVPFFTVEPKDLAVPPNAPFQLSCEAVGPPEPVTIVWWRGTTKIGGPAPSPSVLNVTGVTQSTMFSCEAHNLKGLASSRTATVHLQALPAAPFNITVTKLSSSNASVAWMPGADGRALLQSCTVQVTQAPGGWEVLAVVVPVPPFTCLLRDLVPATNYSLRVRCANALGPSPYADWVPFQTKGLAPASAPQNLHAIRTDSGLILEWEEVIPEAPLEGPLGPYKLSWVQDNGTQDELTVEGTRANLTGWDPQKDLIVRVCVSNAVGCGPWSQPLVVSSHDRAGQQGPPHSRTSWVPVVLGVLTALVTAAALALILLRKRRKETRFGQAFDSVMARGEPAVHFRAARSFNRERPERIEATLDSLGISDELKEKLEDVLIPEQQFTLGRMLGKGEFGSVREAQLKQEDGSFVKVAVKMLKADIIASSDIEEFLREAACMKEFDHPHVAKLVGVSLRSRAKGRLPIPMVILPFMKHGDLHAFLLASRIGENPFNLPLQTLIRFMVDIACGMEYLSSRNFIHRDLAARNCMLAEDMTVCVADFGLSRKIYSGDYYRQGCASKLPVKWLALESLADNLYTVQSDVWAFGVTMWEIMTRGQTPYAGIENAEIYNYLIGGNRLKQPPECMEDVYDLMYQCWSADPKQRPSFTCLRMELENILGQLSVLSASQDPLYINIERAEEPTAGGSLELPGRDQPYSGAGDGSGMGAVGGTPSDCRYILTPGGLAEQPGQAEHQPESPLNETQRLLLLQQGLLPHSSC

[9] = molecular target: Phosphatidylinositol 4-phosphate 5-kinase type-1 gamma (Homo sapiens) (UniProt O60331); experiment: Selectivity interaction (KinomeScan (DiscoverX)) EUB0000607a PIP5K1C; settings: at 10 µM
[10] = molecular target: cGMP-inhibited 3',5'-cyclic phosphodiesterase 3A (Homo sapiens, UniProt Q14432); experiment: Selectivity interaction (Panel of non-epigenetic targets (kinases, GPCRs, ion channels, and transporters, Eurofins) ) EUB0000271b PDE3A; settings: at 1 µM
cGMP-inhibited 3',5'-cyclic phosphodiesterase 3A, sequence (Q14432 whole entry): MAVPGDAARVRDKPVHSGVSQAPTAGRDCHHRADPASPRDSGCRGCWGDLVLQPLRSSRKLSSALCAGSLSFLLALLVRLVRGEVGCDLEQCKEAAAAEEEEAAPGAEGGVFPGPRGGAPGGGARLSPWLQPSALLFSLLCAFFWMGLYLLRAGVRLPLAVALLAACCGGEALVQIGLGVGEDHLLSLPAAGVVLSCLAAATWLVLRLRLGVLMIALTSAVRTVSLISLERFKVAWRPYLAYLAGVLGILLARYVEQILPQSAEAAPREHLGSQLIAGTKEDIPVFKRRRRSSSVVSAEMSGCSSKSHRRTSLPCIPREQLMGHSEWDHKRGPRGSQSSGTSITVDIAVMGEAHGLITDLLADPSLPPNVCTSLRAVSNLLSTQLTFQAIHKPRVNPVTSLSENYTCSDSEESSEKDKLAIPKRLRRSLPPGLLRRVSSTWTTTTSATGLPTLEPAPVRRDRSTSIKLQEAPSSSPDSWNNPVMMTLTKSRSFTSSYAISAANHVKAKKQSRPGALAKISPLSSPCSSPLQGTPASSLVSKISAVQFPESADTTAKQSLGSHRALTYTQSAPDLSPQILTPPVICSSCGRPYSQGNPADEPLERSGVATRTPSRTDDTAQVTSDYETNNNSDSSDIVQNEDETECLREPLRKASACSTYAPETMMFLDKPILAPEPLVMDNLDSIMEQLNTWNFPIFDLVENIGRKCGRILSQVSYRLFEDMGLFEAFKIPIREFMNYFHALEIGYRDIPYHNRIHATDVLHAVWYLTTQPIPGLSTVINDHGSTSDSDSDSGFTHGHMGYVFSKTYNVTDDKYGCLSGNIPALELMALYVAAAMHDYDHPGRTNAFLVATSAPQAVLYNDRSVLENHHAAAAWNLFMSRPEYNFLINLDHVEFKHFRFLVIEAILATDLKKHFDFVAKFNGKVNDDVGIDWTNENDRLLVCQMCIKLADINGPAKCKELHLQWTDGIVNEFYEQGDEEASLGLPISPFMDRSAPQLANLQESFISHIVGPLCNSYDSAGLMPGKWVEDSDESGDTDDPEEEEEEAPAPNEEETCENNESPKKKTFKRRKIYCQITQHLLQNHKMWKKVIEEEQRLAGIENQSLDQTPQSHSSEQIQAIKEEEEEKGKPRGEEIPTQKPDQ

Serine/threonine-protein kinase 33 (Homo sapiens), sequence (Q9BYT3 whole entry, looked up): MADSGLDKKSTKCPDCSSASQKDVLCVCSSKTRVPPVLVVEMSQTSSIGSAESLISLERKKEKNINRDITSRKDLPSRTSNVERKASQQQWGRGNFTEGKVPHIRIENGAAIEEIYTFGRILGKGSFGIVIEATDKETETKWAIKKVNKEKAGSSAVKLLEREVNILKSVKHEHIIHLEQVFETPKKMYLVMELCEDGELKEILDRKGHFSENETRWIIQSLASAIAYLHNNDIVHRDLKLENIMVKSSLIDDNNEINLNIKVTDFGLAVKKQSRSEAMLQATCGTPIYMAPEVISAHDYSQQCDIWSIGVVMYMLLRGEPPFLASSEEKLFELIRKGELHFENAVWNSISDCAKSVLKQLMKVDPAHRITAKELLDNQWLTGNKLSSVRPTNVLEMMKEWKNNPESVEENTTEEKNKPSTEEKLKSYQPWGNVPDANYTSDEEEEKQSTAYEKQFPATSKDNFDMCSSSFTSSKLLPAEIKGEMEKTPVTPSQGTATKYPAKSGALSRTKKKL
Cyclin-dependent kinase 7, sequence (P50613 whole entry): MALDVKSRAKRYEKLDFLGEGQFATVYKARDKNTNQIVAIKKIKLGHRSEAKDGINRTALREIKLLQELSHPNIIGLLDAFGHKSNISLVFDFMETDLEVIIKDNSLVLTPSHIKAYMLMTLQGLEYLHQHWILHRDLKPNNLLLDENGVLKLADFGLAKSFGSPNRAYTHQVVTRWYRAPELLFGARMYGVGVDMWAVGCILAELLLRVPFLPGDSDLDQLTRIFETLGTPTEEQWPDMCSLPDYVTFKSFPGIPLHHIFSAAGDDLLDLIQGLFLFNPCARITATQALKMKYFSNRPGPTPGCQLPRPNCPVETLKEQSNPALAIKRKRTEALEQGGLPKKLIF
Serine/threonine-protein kinase pim-1, sequence (P11309 whole entry, looked up): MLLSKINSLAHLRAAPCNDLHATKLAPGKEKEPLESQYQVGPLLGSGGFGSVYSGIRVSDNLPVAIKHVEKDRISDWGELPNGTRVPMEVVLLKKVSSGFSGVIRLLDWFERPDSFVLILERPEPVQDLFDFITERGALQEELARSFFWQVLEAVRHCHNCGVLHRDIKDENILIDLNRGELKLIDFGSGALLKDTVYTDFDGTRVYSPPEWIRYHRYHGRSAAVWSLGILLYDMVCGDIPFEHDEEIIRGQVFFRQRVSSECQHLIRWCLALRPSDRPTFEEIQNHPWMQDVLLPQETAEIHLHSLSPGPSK
Phosphatidylinositol 3-kinase catalytic subunit type 3, sequence (Q8NEB9 whole entry): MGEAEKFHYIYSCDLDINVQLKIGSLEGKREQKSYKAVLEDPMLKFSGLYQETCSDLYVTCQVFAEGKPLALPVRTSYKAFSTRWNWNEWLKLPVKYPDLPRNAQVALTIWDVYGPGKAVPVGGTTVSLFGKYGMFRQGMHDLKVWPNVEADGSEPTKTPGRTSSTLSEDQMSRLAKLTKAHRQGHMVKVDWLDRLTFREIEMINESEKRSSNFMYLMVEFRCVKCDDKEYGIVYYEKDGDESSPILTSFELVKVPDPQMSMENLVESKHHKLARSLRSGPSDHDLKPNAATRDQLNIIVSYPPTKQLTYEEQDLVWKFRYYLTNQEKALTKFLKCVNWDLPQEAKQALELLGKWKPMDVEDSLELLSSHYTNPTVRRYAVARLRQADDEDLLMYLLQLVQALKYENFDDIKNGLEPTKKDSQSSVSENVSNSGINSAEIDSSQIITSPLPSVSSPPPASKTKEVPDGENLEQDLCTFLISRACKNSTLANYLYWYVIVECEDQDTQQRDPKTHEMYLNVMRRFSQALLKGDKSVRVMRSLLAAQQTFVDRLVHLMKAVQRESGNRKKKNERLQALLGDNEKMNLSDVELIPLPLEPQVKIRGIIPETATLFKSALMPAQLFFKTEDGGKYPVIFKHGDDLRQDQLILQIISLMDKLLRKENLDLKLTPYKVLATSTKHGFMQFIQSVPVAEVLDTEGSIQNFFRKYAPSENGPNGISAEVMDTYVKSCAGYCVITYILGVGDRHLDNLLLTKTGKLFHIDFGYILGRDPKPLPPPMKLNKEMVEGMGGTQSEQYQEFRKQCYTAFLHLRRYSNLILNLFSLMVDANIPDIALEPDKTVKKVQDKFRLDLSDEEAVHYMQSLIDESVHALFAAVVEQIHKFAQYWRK
Phosphatidylinositol 4-phosphate 5-kinase type-1 gamma (Homo sapiens), sequence (O60331 whole entry): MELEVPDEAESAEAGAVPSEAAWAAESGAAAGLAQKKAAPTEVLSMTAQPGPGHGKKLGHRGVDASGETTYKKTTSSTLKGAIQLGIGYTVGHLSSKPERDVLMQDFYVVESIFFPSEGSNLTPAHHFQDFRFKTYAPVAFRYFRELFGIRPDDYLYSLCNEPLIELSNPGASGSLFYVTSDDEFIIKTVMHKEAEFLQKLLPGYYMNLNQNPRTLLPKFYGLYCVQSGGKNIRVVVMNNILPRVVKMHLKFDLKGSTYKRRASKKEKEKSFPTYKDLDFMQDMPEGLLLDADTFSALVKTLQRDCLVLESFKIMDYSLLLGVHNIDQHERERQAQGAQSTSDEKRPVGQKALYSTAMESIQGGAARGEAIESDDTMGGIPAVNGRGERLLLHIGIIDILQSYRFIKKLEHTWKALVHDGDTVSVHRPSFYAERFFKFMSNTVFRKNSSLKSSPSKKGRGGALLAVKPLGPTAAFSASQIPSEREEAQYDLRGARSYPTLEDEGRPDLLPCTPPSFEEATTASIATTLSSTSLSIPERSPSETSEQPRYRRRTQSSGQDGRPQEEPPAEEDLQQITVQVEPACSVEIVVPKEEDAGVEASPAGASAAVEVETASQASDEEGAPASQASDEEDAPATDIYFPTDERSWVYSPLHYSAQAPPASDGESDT

COc1cc(N(C)c2ccnc3ccc(C(F)(F)F)cc23)cc(OC)c1OC
% binding [1]: 69% | % binding [2]: 75%

CC(C)(O)[C@H](F)CN1Cc2cc(NC(=O)c3cnn4cccnc34)c(N3CCOCC3)cc2C1=O
dTM [3]: -1.2 K

CCC(=O)N1CC[C@H](Nc2ncnc3c2CN(c2cnc(OC)c(C(F)(F)F)c2)CC3)C1 [LENIOLISIB]
IC50 [4]: > 9.1 µM

CN(C)CC#Cc1ccc2[nH]c3c(c2c1)-c1nc(N)ncc1CCC3
% of control [5]: 20%

CCC(=O)N1CCN(c2ccc(-n3c(=O)ccc4cnc5ccc(-c6cnc7ccccc7c6)cc5c43)cc2C(F)(F)F)CC1
% of control [6]: 79%

C=CC(=O)Nc1cc(-n2c(=O)ccc3cnc4ccc(-c5ccc(NS(C)(=O)=O)cc5)cc4c32)ccc1C
% of control ([7]; at 1 µM): 100% | % of control ([7]; at 10 µM): 95%

Cc1cc(F)c(C(=O)Nc2cccc(-c3nncn3C(C)C)n2)cc1-n1cnc(C2CC2)c1
% of control [8]: 86%

CNC(=O)Nc1ccc(-c2nc(N3CC4CCC(C3)O4)c3cnn(C4CCC5(CC4)OCCO5)c3n2)cc1
% of control [9]: 100%

Cc1cc(C)cc([C@@H]2c3cc(C)ccc3NC(=O)CN2C(=O)c2ccc(Br)s2)c1
% of inhibition [10]: -11%
